{"source": "patent US10865451B2", "about": "“Non-invasive blood based monitoring of genomic alterations in cancer” (Dana-Farber Cancer Institute, Inc., priority 2013, dated 2020)", "test_system": "advanced EGFR-mutant NSCLC", "experiment": "Serial ddPCR plasma genotyping of patients on first-line erlotinib (NCT00997334) until RECIST progression", "format": "in vivo, human", "description": "For each eligible patient, plasma was collected during routine care either prior to first-line therapy or at a subsequent time when the cancer was progressing on therapy. Additional follow-up specimens were collected if possible during routine care. Each specimen was collected into one 10 mL EDTA-containing vacutainer and was spun into plasma within 4 hours of collection. Plasma cfDNA was extracted and frozen at −80 C until genotyping. Total DNA concentration in extracted plasma was measured via a modified quantitative PCR assay for human long interspersed element 1 (LINE-1).\nEach droplet is individually assigned a positive or negative value based on the fluorescent intensity. The amount of positives and negatives are read by a flow cytometer and are used to calculate the concentration of an allele. To minimize bias and to ensure the integrity of results, the laboratory was blinded to the tumor genotype when testing plasma specimens, but results were selectively unblinded for data analysis. Each plasma sample was analyzed in triplicate with an increasing quantity of input DNA (e.g. 1 μL, 2 μL, and 4 μL). Results were normalized to a mean concentration of mutant alleles per μL DNA input, and reported as copies of mutant allele per 100 μL of DNA, the approximate DNA quantity isolated from one blood specimen.", "data": [{"smiles": "C#Cc1cccc(Nc2ncnc3cc(OCCOC)c(OCCOC)cc23)c1", "note": "[erlotinib]", "values": [{"measurement": "patients exhibiting a plasma response (drop of plasma level of EGFR sensitizing mutation)", "setting": "9 analysed patients with EGFR exon 19 deletion and detectable pretreatment plasma genotype", "result": 9, "unit": "patients"}, {"measurement": "patients demonstrating a complete plasma response", "setting": "of 9 analysed patients", "result": 8, "unit": "patients"}, {"measurement": "patients with plasma levels of mutant EGFR again detected at objective progression (plasma T790M also identified)", "setting": "of 9 analysed patients, at RECIST progression", "result": 6, "unit": "patients"}]}]}
